In patent publication EP0777471B1, “INHIBITION OF LEUKOTRIENE BIOSYNTHESIS WITH UREA DERIVATIVES” (MINNESOTA MINING AND MANUFACTURING COMPANY, priority 1994, dated 1996):
Several values for one entry are separate records, joined by “and”; a condition that tells them apart may be missing. Equal entries are not always repeated. Where two headings read alike, the source gives them in different places.

Legend:
[1] = test system: production of Leukotriene B4; test: Rat ex vivo Leukotriene B4 inhibition (oral dosing, blood challenged with A23187); assay type: in vivo, Rats; conditions: two hours post dose
Experimental: The test method described below measures the ability of a compound when administered orally to rats to inhibit the production of Leukotriene B4 in their blood which is drawn and challenged.
Rats (CD, male, non-fasted, 250 g) are lightly anesthetized with carbon dioxide and an approximately 0.75 mL sample of whole blood is obtained via cardiac puncture. The sample is dispensed into 12 X 75 mm polypropylene tubes containing 8-10 µL of 10,000 units/mL heparin, mixed and then maintained on ice. The rats are allowed to recover approximately one hour then dosed orally with compound dissolved in PEG 400 at a 5 mL/Kg volume. Five (5) rats are utilized per group. Two (2) hours post dose the rats are again anesthetized with carbon dioxide and the blood sampled again via cardiac puncture.
Duplicate 200 µL portions of blood are added to 1.0 mL polypropylene tubes. A 10 µL portion of 1mM A23187 Calcium Ionophore in dimethyl sulfoxide/Tris buffer is added to each tube. The tubes are gently vortexed then incubated in a 37°C water bath for 30 minutes. The tubes are then centrifuged at 4000 rpm for 10 minutes. 50 µL portions of plasma are transferred to 1.0 mL tubes containing 200 µL of methanol. The tubes are vortexed then placed in the freezer overnight.
The tubes are removed from the freezer then centrifuged at 4000 rpm for 10 minutes. […] portions of the methanol/plasma supernatant and 10 µL methanol dilutions of LTB4 standard curve are transferred to 96 well v-bottom microtiter plates. The plates are vacuum dried at 40°C. A 40 µL portion of LTB4 radioimmunoassay buffer is added to each well. The plate is bath sonicated for 5 minutes then assayed according to the manufacturer's (Advanced Magnetics; Cambridge, MA) instructions. Percent inhibition values are obtained by comparing the level of LTB4 in the post-dose samples to the level in the pre-dose samples according to the equation below. % Inhibition =((LTB4 pre-dose) - (LTB4 post-dose))/((LTB4 pre-dose))X 100 [formula]

[2] = test system: production of Leukotriene C4 in mouse peritoneal macrophages; test: In vitro mouse peritoneal macrophage Leukotriene C4 inhibition (zymosan-stimulated, LTC4 radioimmunoassay); assay type: cell-based; conditions: Zymosan 50 µg/mL
Experimental: The test method described below measures the ability of compounds to inhibit the production of Leukotriene C4 in mouse peritoneal macrophages.
Mice (female, CD-1, weighing 25 g) are euthanized by exposure to carbon dioxide. The peritoneal cavity is exposed by peeling back the abdominal skin. A 5 mL portion of media (M199 containing 1% fetal bovine serum, 100 units/mL of penicillin, 100 µg/mL of streptomycin, 20 units/mL of heparin and no glutamine) is injected into the exposed peritoneal cavity of each mouse. The lavage fluid is removed and pooled to yield approximately1 X 10^6 macrophages/mL. A 2 mL portion of lavage fluid is added to each well of a 24 well sterile multidish and the macrophages are allowed to adhere to the plate for 2 hours at 37°C in a 5% carbon dioxide atmosphere. The media is removed and each well is washed with 2 mL of phosphate buffered saline (PBS). A 1 mL portion of media, without heparin, but containing 5 µCi/mL of 3H-myoinositol is added to each well and the plates are incubated overnight at 37°C in a 5% carbon dioxide atmosphere. The media is removed and the cells are washed twice with 2 mL portions of PBS. A 1 mL portion of Puck's saline formulation A containing 1 mM calcium chloride, 1 mM magnesium chloride and 10 mM lithium chloride is added to each well. (The Puck's formulation is made first as a 10X solution which contains 4 g of potassium chloride, 80 g of sodium chloride and 10 g of glucose per liter. The Puck's saline formulation A is made using 10 mL of the 10X Puck's formulation, 0.47 mL of 7.5% sodium bicarbonate and 2 mL of 1M N-2-hydroxyethylpiperazine-N'-2-ethanesulfonic acid per 100 mL.)
Compounds are dissolved in dimethyl sulfoxide. Compounds are tested at concentrations of 10, 1 and 0.1 µM. Each concentration is tested in duplicate.
A 1 µL portion of compound solution or vehicle (DMSO) is added to each well and the plates are incubated for 15 minutes at 37°C in a 5% carbon dioxide atmosphere. Zymosan is then added to provide a final concentration of 50 µg/mL in each well and the plate is incubated for 1 to 2 hours at 37°C in a 5% carbon dioxide atmosphere.
Following incubation 200 µL portions of media are transferred to 12 X 75 mm tubes. The tubes are either assayed immediately or stored at -20°C until they can be assayed.
The media is assayed for the presence of Leukotriene C4 by radioimmunoassay which is performed according to the manufacturer's (Advanced Magnetics; Cambridge, MA) instructions.

[3] = test system: production of Leukotriene B4 (LTB4); test: Dog ex vivo Leukotriene B4 inhibition (oral dosing, blood challenged with calcium ionophore); assay type: in vivo, beagle dogs; conditions: each entry one dog, negative = stimulation of LTB4 production; for % Inhibition 1 hour / % Inhibition 2 hour / % Inhibition 4 hour / % Inhibition 6 hour: 5 mg/Kg; for % Inhibition 4 hour: 4 hour post dose; for % Inhibition 6 hour: 6 hour post dose; for inhibition at 5 mg/kg: Canis lupus familiaris, po
Experimental: The test method described below measures the ability of a compound when administered orally to dogs to inhibit the production of Leukotriene B4 (LTB4) in their blood which is drawn and challenged at selected time points.
The test is conducted in beagle dogs (male and female; about 10 Kg). Prior to starting, the neck area of the beagle is shaved to allow easy access to the jugular vein. A 3-4 mL sample of blood is drawn from the jugular vein into a heparinized vacutainer. The dog is then dosed using a tube long enough to reach its stomach. The compound is dissolved in PEG 400 at a concentration such that the appropriate dose can be administered in approximately 5 mL. Immediately after the compound is given, a flush using 5 mL of vehicle is given to rinse the dosing tube. At selected time points following the dose, a 3-4 mL sample of blood is drawn.
The blood samples that have been drawn are challenged as soon as possible. A 0.5 mL portion of blood is aliquoted into 3 tubes (1 mL microtiter tubes). A 1 µL portion of 25 mM calcium ionophore in dimethyl sulfoxide is added to 2 of the tubes. A 1 µL portion of dimethyl sulfoxide is added to the third tube. The tubes are lightly mixed then placed in a 37°C water bath for 30 minutes. The tubes are centrifuged at 11,000 rpm for 3 minutes and the plasma supernatant is transferred to clean tubes. A 50 µL portion of this plasma is added to a I mL microtiter tube containing 200 µL of methanol. The tubes are placed in the freezer at -20°C for at least 1 hour then centrifuged at 2000 rpm for 10 minutes. A 10 µL portion of the methanol supematant is dried under vacuum at ambient temperature and then reconstituted in LTB4 buffer. The amount of LTB4 in the sample is determined by radioimmunoassay performed according to the manufacturer's (Advanced Magnetics; Cambridge, MA) instructions. Percent inhibition values are obtained by comparing the level of LTB4 in the post-dose sample to the level in the pre-dose sample according to the equation below. % Inhibition =((LTB4 predose) - (LTB4 postdose))/((LTB4 predose))X 100 [formula]
A number of the compounds that are useful in the practice of the method of the invention were tested. The results are shown in Table 15 below where each entry represents the results from one dog. A negative number indicates stimulation of LTB4 production. All compounds were tested at a dose of 5 mg/Kg.

[4] = 1 h, 1 hour post dose, read-out: % Inhibition 1 hour
[5] = 2 h, 2 hour post dose, read-out: % Inhibition 2 hour

With `CCCCc1ccc(NC(=O)N(C)O)cc1` [Compound 12, 3-(4-butylphenyl)-1-hydroxy-1-methylurea] the “%I” value ([1]; 50 mg/Kg) was 42%.

In the case of `CN(O)C(=O)Nc1ccc(Oc2ccccc2)cc1` [Compound 14, 1-hydroxy-1-methyl-3-(4-phenoxyphenyl)urea], the IC50 [2] is reported as < 1000 nM.

`CCCCc1ccc(NC(=O)N(O)C(C)C)cc1` [Compound 27, 3-(4-butylphenyl)-1-hydroxy-1-(1-methylethyl)urea] was tested, and the “%I” value ([1]; 10 mg/Kg) was 23%, the “%I” value ([1]; 25 mg/Kg) was 5% and the “%I” value ([1]; 50 mg/Kg) was 53% and 75%.

With `COc1ccc(OC)c(NC(=O)N(O)C(C)C)c1` [Compound 28, 3-(2,5-dimethoxyphenyl)-1-hydroxy-1-(1-methylethyl)urea] the “%I” value ([1]; 50 mg/Kg) was 29%.

With `COc1ccccc1NC(=O)N(O)C(C)C` [Compound 29, 1-hydroxy-3-(2-methoxyphenyl)-1-(1-methylethyl)urea] the “%I” value ([1]; 50 mg/Kg) was 61%.

In the case of `CCC(CC)N(O)C(=O)Nc1ccc(Br)cc1` [Compound 41, 3-(4-Bromophenyl)-1-(1-ethylpropyl)-1-hydroxyurea], the “%I” value ([1]; 50 mg/Kg) is reported as 14%.

`CCC(CC)N(O)C(=O)Nc1ccccc1` [Compound 42, 1-(1-Ethylpropyl)-1-hydroxy-3-phenylurea] was tested, and the “%I” value ([1]; 50 mg/Kg) was 4%, the “% Inhibition 1 hour” value ([3]; 1 hour post dose) was 98% and 100% and the “% Inhibition 2 hour” value ([3]; 2 hour post dose) was 100%. For the same compound, the “% Inhibition 4 hour” value [3] was 97% and 100% and -91%, the “% Inhibition 6 hour” value [3] was 78% and 85% and 91% and -150% and the inhibition at 5 mg/kg [3, 4] was 99%. The inhibition at 5 mg/kg [3, 5] was 99%.

With `CCOCCN(O)C(=O)Nc1ccccc1` [Compound 45, 1-(2-ethoxyethyl)-1-hydroxy-3-phenylurea] the “%I” value ([1]; 50 mg/Kg) was 6%.

`O=C(Nc1ccccc1)N(O)C1CCCC1` [Compound 46, 1-cyclopentyl-1-hydroxy-3-phenylurea] was tested, and the “%I” value ([1]; 50 mg/Kg) was 17%, the “% Inhibition 1 hour” value ([3]; 1 hour post dose) was 77% and the “% Inhibition 2 hour” value ([3]; 2 hour post dose) was 58%. For the same compound, the “% Inhibition 4 hour” value [3] was 11% and 2%, the “% Inhibition 6 hour” value [3] was -23% and 46% and the inhibition at 5 mg/kg [3, 4] was 80%. It also gave an inhibition at 5 mg/kg [3, 5] of 64%.

In the case of `CCCCC(CC)CN(O)C(=O)Nc1ccccc1` (centres unmarked) [Compound 47, 1-(2-ethylhexyl)-1-hydroxy-3-phenylurea], the “%I” value ([1]; 50 mg/Kg) is reported as 16%.

With `CC(C)(C)CCN(O)C(=O)Nc1ccccc1` [Compound 48, 1-(3,3-dimethylbutyl)-1-hydroxy-3-phenylurea] the “%I” value ([1]; 50 mg/Kg) was 2%.

In the case of `CCCCCN(O)C(=O)Nc1ccc(CCCC)cc1` [Compound 57, 3-(4-Butylphenyl)-1-hydroxy-1-pentylurea], the “%I” value ([1]; 50 mg/Kg) is reported as 35%.

`CC(C)N(O)C(=O)Nc1cccc(S(C)(=O)=O)c1` [Compound 60, 1-Hydroxy-1-(1-methylethyl)-3-[3-(methylsulfonyl)phenyl]urea] was tested, and the “% Inhibition 1 hour” value ([3]; 1 hour post dose) was 97%, the “% Inhibition 2 hour” value ([3]; 2 hour post dose) was 52% and the “% Inhibition 4 hour” value [3] was -79% and 49%. For the same compound, the “% Inhibition 6 hour” value [3] was -95% and 76% and the inhibition at 5 mg/kg [3, 4] was 100%.

In the case of `CC(C)N(O)C(=O)Nc1cccc([S+](C)[O-])c1` (centres unmarked) [Compound 61, 1-Hydroxy-1-(1-methylethyl)-3-[3-(methylsulfinyl)phenyl]urea], the “% Inhibition 2 hour” value ([3]; 2 hour post dose) is reported as 99%, the “% Inhibition 4 hour” value [3] is reported as 29% and -2% and the “% Inhibition 6 hour” value [3] is reported as -32% and 22%. The inhibition at 5 mg/kg [3, 4] was 100% and the inhibition at 5 mg/kg [3, 5] was 100%.

With `CN(O)C(=O)Nc1ccc([S+](C)[O-])cc1` (centres unmarked) [Compound 64, 1-Hydroxy-1-methyl-3-[4-(methylsulfinyl)phenyl]urea] the “%I” value ([1]; 50 mg/Kg) was 88%.

With `CN(O)C(=O)Nc1ccc(S(C)(=O)=O)cc1` [Compound 65, 1-Hydroxy-1-methyl-3-[4-(methylsulfonyl)phenyl]urea] the “%I” value ([1]; 50 mg/Kg) was 93%.

`COc1cc(NC(=O)N(O)C(C)C)cc(OC)c1OC` [Compound 66, 1-Hydroxy-1-(1-methylethyl)-3-(3,4,5-trimethoxyphenyl)urea] was tested, and the “%I” value ([1]; 50 mg/Kg) was 61%.

With `CCCC(C)N(O)C(=O)Nc1ccccc1` (centres unmarked) [Compound 68, 1-Hydroxy-1-(1-methylbutyl)-3-phenylurea] the IC50 [2] was < 1000 nM.

In the case of `CCC(CC)N(O)C(=O)Nc1ccc(Oc2ccccc2)cc1` [Compound 72, 1-Hydroxy-1-(1-ethylpropyl)-3-(4-phenoxyphenyl)urea], the IC50 [2] is reported as < 1000 nM.

For `CCC(CC)N(O)C(=O)Nc1cc(C(F)(F)F)cc(C(F)(F)F)c1` [Compound 73, 1-Hydroxy-1-(1-ethylpropyl)-3-(3,5-bis(trifluoromethyl)phenyl)urea], the IC50 [2] was < 1000 nM.

With `CCC(CC)N(O)C(=O)Nc1ccc(C(=O)c2ccccc2)cc1` [Compound 79, 1-Hydroxy-1-(1-ethylpropyl)-3-(4-benzoylphenyl)urea] the IC50 [2] was < 1000 nM.

`CCC(CC)N(O)C(=O)Nc1ccc(OCc2ccccc2)cc1` [Compound 80, 1-Hydroxy-1-(1-ethylpropyl)-3-(4-benzyloxyphenyl)urea] was tested, and the IC50 [2] was < 1000 nM.

With `CCC(CC)N(O)C(=O)Nc1ccc(OCC2CCCCC2)cc1` [Compound 81, 1-Hydroxy-1-(1-ethylpropyl)-3-[4-(cyclohexylmethoxy)phenyl]urea] the IC50 [2] was < 1000 nM.

`CCC(CC)N(O)C(=O)Nc1ccc(OCCCc2ccccc2)cc1` [Compound 82, 1-Hydroxy-1-(1-ethylpropyl)-3-[4-(3-phenylpropyloxy)phenyl]urea] was tested, and the IC50 [2] was < 1000 nM.

With `CCC(CC)N(O)C(=O)Nc1ccc(-c2ccccc2)cc1` [Compound 83, 1-Hydroxy-1-(1-ethylpropyl)-3-(biphenyl-4-yl)urea] the IC50 [2] was < 1000 nM.
